Source: patent US11992012B2, “Diaminotriazine compounds” (BASF SE, priority 2018, dated 2024)

Tests used:
Assay in all cases: greenhouse pre-emergence herbicidal test
Format in all cases: in vivo
Settings in all cases: 250 g/ha, scale 0 to 100
[1] = tested on: Alopercurus myosuroides
Procedure, shortened: (§1)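 Seeds sown in loamy sand (~3.0% humus); compounds suspended or emulsified in water, sprayed directly after sowing, pots covered until rooting. Kept at 10-25° C. or 20-35° C. by species for 2 to 4 weeks. Damage scored visually 0-100 (100 = no emergence or complete aerial destruction).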

[2] = tested on: Abutilon theophrasti
Procedure, shortened: (§2)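 Compounds suspended or emulsified in water were sprayed onto loamy sand (about 3.0% humus) right after sowing; pots were hooded until rooting. Damage was scored on a 0–100 scale (100 = no emergence or complete aerial destruction, 0 = normal growth) after 2 to 4 weeks.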

[3] = tested on: Setaria faberi
Procedure, shortened: as §2

[4] = tested on: Apera spica-venti
Procedure, shortened: as §1

[5] = tested on: Echinocloa crus-galli
Procedure, shortened: as §1

SMILES	herbicidal activity [1]	herbicidal activity [2]	herbicidal activity [3]	herbicidal activity [4]	herbicidal activity [5]
CC(C)(F)c1nc(N)nc(Nc2c(Cl)cccc2OCc2ccccc2)n1 [Example 85]	70%	90%	70%	–	–
Cc1cc(COc2cccc(F)c2Nc2nc(N)nc(C(C)(C)F)n2)c(C)s1 [Example 125]	–	–	–	85%	100%
CC(C)(F)c1nc(N)nc(Nc2c(F)cccc2OCc2cccc(OCC(F)(F)F)c2)n1 [Example 134]	–	–	90%	95%	90%
CC(C)(F)c1nc(N)nc(Nc2c(F)cccc2OCc2cccc(OC(F)(F)F)c2)n1 [Example 136]	–	–	80%	80%	85%
CC(C)(F)c1nc(N)nc(Nc2c(F)c(F)cc(F)c2OCc2c(F)cccc2F)n1 [Example 165]	100%	100%	–	–	100%
CC(C)(F)c1nc(N)nc(Nc2c(F)ccc(F)c2OCc2c(F)cccc2F)n1 [Example 167]	100%	100%	100%	–	–
CC(C)(F)c1nc(N)nc(Nc2c(F)cc(F)c(F)c2OCc2ccccc2)n1 [Example 188]	100%	100%	–	–	100%
Nc1nc(Nc2c(F)c(F)cc(F)c2OCc2ccccc2)nc(C2(F)CCCC2)n1 [Example 199]	100%	100%	–	–	100%
CC(C)(F)c1nc(N)nc(Nc2c(F)c(F)cc(F)c2OCc2cccc(F)c2)n1 [Example 204]	100%	100%	100%	–	100%
CC(C)(F)c1nc(N)nc(Nc2c(F)c(F)cc(F)c2OCc2ccccc2Cl)n1 [Example 206]	100%	100%	100%	–	100%
COc1ccccc1COc1c(F)cc(F)c(F)c1Nc1nc(N)nc(C(C)(C)OC)n1 [Example 214]	98%	100%	90%	–	–
CCc1ccc(COc2c(F)cc(F)c(F)c2Nc2nc(N)nc(C(C)(C)F)n2)cc1 [Example 216]	98%	100%	100%	–	–
COC(C)(C)c1nc(N)nc(Nc2c(F)c(F)cc(F)c2OCc2ccccc2C)n1 [Example 226]	100%	90%	–	–	100%
COC(C)(C)c1nc(N)nc(Nc2c(F)c(F)cc(F)c2OCc2ccc(C)cc2)n1 [Example 228]	100%	100%	–	–	90%
Cc1ccccc1COc1c(F)cc(F)c(F)c1Nc1nc(N)nc(C(C)F)n1 (stereo not shown) [Example 229]	100%	100%	–	–	100%
Cc1ccc(COc2c(F)cc(F)c(F)c2Nc2nc(N)nc(C(C)F)n2)cc1 (stereo not shown) [Example 231]	98%	98%	–	–	98%
CC(C)CC(F)c1nc(N)nc(Nc2c(F)cccc2OCc2ccccc2)n1 (stereo not shown) [Example 233]	80%	75%	–	–	95%
CC(C)(F)c1nc(N)nc(Nc2c(F)c(F)cc(Cl)c2OCc2ccccc2)n1 [Example 234]	90%	100%	–	–	100%
CC(C)(F)c1nc(N)nc(Nc2c(F)c(F)c(F)c(F)c2OCc2ccccc2)n1 [Example 236]	95%	100%	–	–	100%
